Where two headings read alike, the source gives them in different places.
Key:
[1] = tested on: Botox-induced symptoms; assay type: in vivo, mouse; details: for reading of Botox-induced muscle weakness after topical DAP: n=7
[2] = tested on: neuromuscular blockade; details: effective-dose comparison with PMB; cited from earlier work
[3] = tested on: various bacteria; details: cited from earlier work
[4] = tested on: mice; details: effective-dose comparison with PMB; cited from earlier work
[5] = tested on: rat mast cells; details: cited from earlier work
[6] = tested on: eukaryotic cytotoxicity; details: cited from earlier work
[7] = in vivo; cited from earlier work

Molecule: Nc1ccncc1N [DAP, 3,4-diaminopyridine]
- reading of Botox-induced muscle weakness after topical DAP ([1]; at 1 hour): 1.5
- reading of Botox-induced muscle weakness after topical DAP ([1]; at 4 hour): 0.75
- reading later in the experiment ([1]; mouse, in vivo): the reading went up
- response to topical administration ([1]; mouse, in vivo): rapid response

Molecule: Polymyxin B nonapeptide [PMBN]
- fold less active than PMB in causing neuromuscular blockade [2]: 150 times
- MIC compared to parent molecule PMB [3]: increased up to thousand folds
- fold less toxic than PMB, acute toxicity [4]: 15 times
- fold less active than PMB in releasing histamine [5]: 25 time
- fold less toxic than PMB, cytotoxicity [6]: 100 times
- half-life [7]: approximately 25 minutes
